Reference: patent publication US20060171969A1, “Oral pharmaceutical forms of liquid drugs having improved bioavailability” (priority 2002, published 2006)

Assay: In man pharmacokinetics of oral NO-diclofenac sachets (plasma, LC/MS/MS)
Format: in vivo
Conditions: 75, 100 and 150 mg sachets of example 2, oral; 0.25-32 h
Description: In man evaluation of pharmacokinetic and pharmacodynamic parameters of the oral NO-diclofenac formulation described in example 2 (sachets).
Six healthy fastened patients were administered with 75, 100 and 150 mg NO-Diclofenac sachets formulated as described in example 2.
In order to evaluate the pharmacokinetic parameters, blood samples were taken at 0.25, 0.5, 1, 2, 3, 4, 5, 6, 8, 10, 12, 16, 24 and 32 hours after administration of the pharmaceutical formulation. The active ingredient NO-diclofenac and its metabolites diclofenac and the hydroxyderivative 4-OH-diclofenac were dosed in plasma by a LC/MS/MS method, previously validated. NO-diclofenac was not found in the samples at any dosage. The pharmacokinetic parameters of plasma levels obtained for diclofenac (D) and the 4-hydroxydiclofenac (40H-Diclofenac, 40H-D) are reported in Table 2.

## O=C(Cc1ccccc1Nc1c(Cl)cccc1Cl)OCCCCO[N+](=O)[O-] [NO-diclofenac, 2-[(2,6-dichlorophenyl)amino]benzeneacetic acid 4-(nitrooxy)butyl ester]
  NO-diclofenac (unchanged) in plasma samples: not found
